For one series, the target named is T1, Androgen receptor (AR) (Homo sapiens, UniProt P10275, T878A).
T1 construct: 5.5×10^5 LNCap cells were injected into each well of a 6-well plate; endogenous in cells; host or cells: LNCaP
T1 sequence (P10275 1-920 T878A): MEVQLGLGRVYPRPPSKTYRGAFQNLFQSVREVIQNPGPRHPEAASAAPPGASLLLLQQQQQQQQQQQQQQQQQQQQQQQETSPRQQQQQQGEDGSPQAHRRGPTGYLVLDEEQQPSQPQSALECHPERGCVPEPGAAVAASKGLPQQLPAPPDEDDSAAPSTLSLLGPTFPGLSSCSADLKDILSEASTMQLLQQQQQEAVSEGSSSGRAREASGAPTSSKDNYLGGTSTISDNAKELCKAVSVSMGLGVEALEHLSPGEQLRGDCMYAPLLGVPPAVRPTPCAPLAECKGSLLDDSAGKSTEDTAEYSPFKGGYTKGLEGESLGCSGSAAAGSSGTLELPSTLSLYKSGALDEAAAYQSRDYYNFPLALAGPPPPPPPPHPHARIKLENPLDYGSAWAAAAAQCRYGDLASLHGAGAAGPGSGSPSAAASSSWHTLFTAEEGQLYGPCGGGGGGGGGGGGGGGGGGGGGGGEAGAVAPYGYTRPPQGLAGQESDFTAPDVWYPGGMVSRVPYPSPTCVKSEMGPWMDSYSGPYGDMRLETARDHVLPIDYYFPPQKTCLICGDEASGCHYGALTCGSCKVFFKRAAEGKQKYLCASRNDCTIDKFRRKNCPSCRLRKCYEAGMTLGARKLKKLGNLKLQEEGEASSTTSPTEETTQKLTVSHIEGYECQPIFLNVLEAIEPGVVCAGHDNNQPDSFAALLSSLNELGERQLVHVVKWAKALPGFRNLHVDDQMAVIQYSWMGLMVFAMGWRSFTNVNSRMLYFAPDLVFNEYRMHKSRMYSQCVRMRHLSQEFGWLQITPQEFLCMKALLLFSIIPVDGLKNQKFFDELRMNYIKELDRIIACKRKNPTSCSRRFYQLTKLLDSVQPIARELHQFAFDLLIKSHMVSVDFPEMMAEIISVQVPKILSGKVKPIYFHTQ
As to the kind of experiment: Assessment of AR proteolytic activity (Western blotting of LNCap cell lysates). It is filed as cell-based. The following applies: 24 hours of treatment, Western blotting quantified with Image J. A digest of the protocol:
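AR degradation read by Western blot densitometry on RIPA lysates (pH 7.5, protease inhibitor cocktail). Lysates came from LNCap cells, 5.5×10^5 per well, exposed to compound for 24 hours.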

By CC50 is commonly meant the concentration at which the toxic effect on the cells reaches its halfway point. With `CC1(C)[C@H](NC(=O)c2ccc(N3CCN(CCC4CCN(C(=O)CNc5ccc6nnn(C7CCC(=O)NC7=O)c(=O)c6c5)CC4)CC3)cc2)C(C)(C)[C@H]1Oc1ccc(C#N)c(Cl)c1` (stereo partly drawn) [Example 25, N-((1r,3r)-3-(3-chloro-4-cyanophenoxy)-2,2,4,4-tetramethylcyclobutyl)-4-(4-(2-(1-((3-(2,6-dioxopiperidin-3-yl)-4-oxo-3,4-dihydrobenzo[d][1,2,3]triazin-6-yl)glycyl)piperidin-4-yl)ethyl)piperazin-1-yl)benzamide], the CC50 was determined as 2130 nM in the series on LNCaP cells and 45.7 nM with VCaP cells. Moreover, the “Degradation (1 μM treated in LNCaP, % AR remaining)” value on Androgen receptor (AR) amounted to 50%.

In the case of `CC1(C)[C@H](NC(=O)c2ccc(N3CCN(CCC4CCN(C(=O)C5CN(c6ccc7nnn(C8CCC(=O)NC8=O)c(=O)c7c6)C5)CC4)CC3)cc2)C(C)(C)[C@H]1Oc1ccc(C#N)c(Cl)c1` (stereo partly drawn) [Example 27, N-((1r,3r)-3-(3-chloro-4-cyanophenoxy)-2,2,4,4-tetramethylcyclobutyl)-4-(4-(2-(1-(1-(3-(2,6-dioxopiperidin-3-yl)-4-oxo-3,4-dihydrobenzo[d][1,2,3]triazin-6-yl)azetidine-3-carbonyl)piperidin-4-yl)ethyl)piperazin-1-yl)benzamide], the results for the CC50 in the series on LNCaP cells and with VCaP cells were 552 nM and 37.1 nM, respectively. The “Degradation (1 μM treated in LNCaP, % AR remaining)” value at Androgen receptor (AR) is on record as 14%.

Turning to `CC1(C)[C@H](NC(=O)c2ccc(N3CCN(CCC4CCN(c5cccc6nnn(C7CCC(=O)NC7=O)c(=O)c56)CC4)CC3)cc2)C(C)(C)[C@H]1Oc1ccc(C#N)c(Cl)c1` (stereo partly drawn) [Example 28, N-((1r,3r)-3-(3-chloro-4-cyanophenoxy)-2,2,4,4-tetramethylcyclobutyl)-4-(4-(2-(1-(3-(2,6-dioxopiperidin-3-yl)-4-oxo-3,4-dihydrobenzo[d][1,2,3]triazin-5-yl)piperidin-4-yl)ethyl)piperazin-1-yl)benzamide], the CC50 amounted to 1280 nM with LNCaP cells and 1580 nM in the series on VCaP cells. The “Degradation (1 μM treated in LNCaP, % AR remaining)” value on Androgen receptor (AR) is given as 69%.

In the case of `CC1(C)[C@H](NC(=O)c2ccc(N3CCN(CCC4CCN(c5ccc6nnn(C7CCC(=O)NC7=O)c(=O)c6c5)CC4)CC3)cc2)C(C)(C)[C@H]1Oc1ccc(C#N)c(Cl)c1` (stereo partly drawn) [Example 29, N-((1r,3r)-3-(3-chloro-4-cyanophenoxy)-2,2,4,4-tetramethylcyclobutyl)-4-(4-(2-(1-(3-(2,6-dioxopiperidin-3-yl)-4-oxo-3,4-dihydrobenzo[d][1,2,3]triazin-6-yl)piperidin-4-yl)ethyl)piperazin-1-yl)benzamide], the CC50 is 425 nM in the series on LNCaP cells and 120 nM in the series with VCaP cells. The “Degradation (1 μM treated in LNCaP, % AR remaining)” value at Androgen receptor (AR) came to 6%.

`CC1(C)[C@H](NC(=O)c2ccc(N3CCN(CCCC4CCN(C(=O)C5CN(c6ccc7nnn(C8CCC(=O)NC8=O)c(=O)c7c6)C5)CC4)CC3)cc2)C(C)(C)[C@H]1Oc1ccc(C#N)c(Cl)c1` (stereo partly drawn) [Example 47, N-((1r,3r)-3-(3-chloro-4-cyanophenoxy)-2,2,4,4-tetramethylcyclobutyl)-4-(4-(3-(1-(1-(3-(2,6-dioxopiperidin-3-yl)-4-oxo-3,4-dihydrobenzo[d][1,2,3]triazin-6-yl)azetidine-3-carbonyl)piperidin-4-yl)propyl)piperazin-1-yl)benzamide]: the CC50 came out at 168 nM in the series with LNCaP cells and 23.7 nM in the series with VCaP cells. Besides, at Androgen receptor (AR), the “Degradation (1 μM treated in LNCaP, % AR remaining)” value was 43.6%.

On to `CC1(C)[C@H](NC(=O)c2ccc(N3CCN(CC4(F)CCN(C(=O)C5CN(c6ccc7nnn(C8CCC(=O)NC8=O)c(=O)c7c6)C5)CC4)CC3)cc2)C(C)(C)[C@H]1Oc1ccc(C#N)c(Cl)c1` (stereo partly drawn) [Example 63, N-((1r,3r)-3-(3-chloro-4-cyanophenoxy)-2,2,4,4-tetramethylcyclobutyl)-4-(4-((1-(1-(3-(2,6-dioxopiperidin-3-yl)-4-oxo-3,4-dihydrobenzo[d][1,2,3]triazin-6-yl)azetidine-3-carbonyl)-4-fluoropiperidin-4-yl)methyl)piperazin-1-yl)benzamide], for which the values for the CC50 in the series with LNCaP cells and in the series with VCaP cells were 53.2 nM and 14.8 nM, respectively. The “Degradation (1 μM treated in LNCaP, % AR remaining)” value at Androgen receptor (AR) was found to be 6%.

Source of the values: patent US20240018123A1, “COMPOUND FOR INHIBITING OR DISINTEGRATING ANDROGEN RECEPTOR, AND PHARMACEUTICAL USE THEREOF” (KOREA RESEARCH INSTITUTE OF CHEMICAL TECHNOLOGY, priority 2020, published 2024).
